In one assay the target is Fab311. The experiment in a line: ITC affinity measurement of peptides to Fab311. The class given is binding, human. The note with it: for Kd / No. of sites: ITC, 25 °C, Dulbecco's PBS, Fab311 10.3 μM in cell, peptide 89–122 μM in syringe, single-site model, average and SD of triplicate experiments; for affinity/Kd compared with the (NPNA)3 peptide: Fab311, ITC, change vs (NPNA)3. As for the experimental part: (§1) ITC affinity measurements were performed using a MicroCal Auto-iTC200 instrument (GE Healthcare). […]
(§2) General. All peptides were ordered from Innopep Inc. with a 10-μg/mL solution of the Fab of interest in blocking buffer. The purity of >98% and contained chlorine counter ions. The pep- membrane was then washed three times for 5 min each in TBST tides have N-terminal acetylation and C-terminal amidation to buffer, after which it was incubated for 2 h with an anti-human eliminate charges at the peptide termini. Fab genes were codon Fab secondary antibody conjugated to HRP (Sigma-Aldrich) at a optimized, synthesized, and cloned into pHCMV3 vectors by 1:20,000 dilution in blocking buffer. […]
(§3) Antibodies 311 and 317 were selected forITC. A MicroCal Auto-iTC200 (GE Healthcare) was used to structural studies because of their functional activity, high avidity perform ITC measurements. Before the experiments, all proteins index, and similar heavy-chain germline genes. were extensively dialyzed against Dulbecco’s PBS (Thermo Evaluation of the Protective Activity of mAbs. mAbs (100 μg for Fischer). The peptides were placed in the syringe at a concentration Ab311 and 300 μg for Ab317 and Ab2A10) against the NANP of 122μM for Ac-NPNANPNA-NH2, 116 μM for Ac-repeats of P. falciparum CSP were administered to 7- to 8-wk-old NPNANPNANPNA-NH2,89μM for Ac-[…]- […]
(§4) C57BL/6 mice (five mice per group) by i.v. injection [in 200 μLof NH2, and 110 μM for Ac-DPNANPNVDPNA-NH2, whereas the […]
(§5) PBS (pH 7.4)]. The mice were challenged 5–10 min later by i.v. concentrations of Fab fragments in the cell were 10.3 and 9.7 μM injection with 2,000 P. berghei chimeric sporozoites expressing for Fab311 and Fab317, respectively. The Fab and peptide P. falciparum CSP (3D7 strain) generated as previously described concentrations were determined by UV absorbance at 280 nm (22). Forty hours later, livers were harvested, and RNA was and 205 nm. Molar extinction coefficients for the peptides were isolated to quantify the malaria-specific 18s rRNA levels by real- estimated using a previously published method (35). Experi-time PCR (34). Inhibition of parasite development was calcu- ments were carried out in triplicate at 25 °C, except for lated by comparing the parasite liver burdens of experimental Fab317 binding to Ac-[…]-NH2, which was […]
(§6) and naive control mice. The statistical analyses were done with done in duplicate, and consisted of 16 injections of 2.45 μL each, the Mann–Whitney U test. Data were plotted using GraphPad with injection duration of 4.9 s, inject io n interval of 180 s, and Prism 6.0 software. No samples were excluded from statistical reference power of 5 μCa l. Fi tt in g of the integrate d titrati on analyses. peaks was performed with Origin 7.0 software using a single-site binding model. The first data point and any outliers were Expression and Purification of Recombinant CSP. The rsCSP con- excluded from the fit. […]
(§7) Two 1-L NaCl, 2.7 mM KCl, pH 8.0) with a 5:1 molar ratio of (NPNA)3 cultures were inoculated the next day with 25 mL overnight peptide to Fab. Crystals were grown using sitting-drop vapor culture and were grown at 37 °C. When the optical density at diffusion with a well solution containing 0.1 M MES (pH 6.0), 600 nm reached a value of 1, the cultures were induced with 36% PEG400, 5% PEG3000 for the Fab311–peptide complex, 1 mM isopropyl β-D-1-thiogalactopyranoside for 6 h. The cells and 0.1 M sodium citrate (pH 4.0), 1 M lithium chloride, 20% then were harvested and lysed by microfluidization. The lysate PEG6000 for the Fab317–peptide complex. Crystals were grown was incubated overnight with Ni cOmplete resin (Roche) and at 298 K and typically appeared within 3 d. Fab311–peptide was eluted using a buffer containing 200 mM imidazole. Typi- crystals were cryo-cooled without additional cryoprotection, cally, 10 mg of protein was obtained per 2 L of culture. Samples while Fab317–peptide crystals were cryoprotected by soaking in […]

Another assay addresses Fab317. As to the kind of experiment: ITC affinity measurement of peptides to Fab317. Type of assay: binding, human. To be noted: for Kd / No. of sites: ITC, 25 °C, Dulbecco's PBS, Fab317 9.7 μM in cell, single-site model. The method, then: as §1, §2, §3, §4, §5, §6, §7
[1] abbreviates: peptide 110–122 μM in syringe, average and SD of triplicate experiments.
Setting [2] is: peptide 89 μM in syringe, duplicate experiments.

`CC(=O)N[C@@H](CC(N)=O)C(=O)N1CCC[C@H]1C(=O)N[C@@H](CC(N)=O)C(=O)N[C@@H](C)C(=O)N[C@@H](CC(N)=O)C(=O)N1CCC[C@H]1C(=O)N[C@@H](CC(N)=O)C(=O)N[C@@H](C)C(=O)N[C@@H](CC(N)=O)C(=O)N1CCC[C@H]1C(=O)N[C@@H](CC(N)=O)C(=O)N[C@@H](C)C(N)=O` [(NPNA)3, Ac-NPNANPNANPNA-NH2]: at Fab311, the Kd was 305 ± 60 nM and the No. of sites was 0.74 ± 0.02. For the same compound, at Fab317 (setting [1]), the Kd was 78 ± 16 nM and the No. of sites worked out at 1.27 ± 0.02.

Turning to `CC(=O)N[C@@H](CC(N)=O)C(=O)N1CCC[C@H]1C(=O)N[C@@H](CC(N)=O)C(=O)N[C@@H](C)C(=O)N[C@@H](CC(N)=O)C(=O)N1CCC[C@H]1C(=O)N[C@@H](CC(N)=O)C(=O)N[C@@H](C)C(N)=O` [(NPNA)2, Ac-NPNANPNA-NH2], at Fab311, the “affinity/Kd compared with the (NPNA)3 peptide” value is listed as “almost identical to that of the (NPNA)3 peptide”, binding was characterised by a dissociation constant (Kd) of 296 ± 19 nM and the No. of sites is on record as 1.50 ± 0.08. For the same compound, the “Kd increase compared with (NPNA)3” value at Fab317 (Fab317, ITC, vs (NPNA)3) worked out at 2.2 fold. Moreover, at Fab317 (setting [1]), the Kd came out at 173 ± 8 nM and the No. of sites is recorded as 1.41 ± 0.05.

Turning to “Ac-NPNVDPNANPNV-NH2 [NPNVDPNANPNV, Ac-NPNVDPNANPNV-NH2]”, on Fab311, the “affinity/Kd compared with the (NPNA)3 peptide” value is given as “approximately fivefold lower affinity”, the Kd is 1790 ± 189 nM and the No. of sites is given as 1.24 ± 0.02. Further, in the assay with Fab317 (Fab317, ITC, NVDP-containing peptides, comparator not clearly stated), the “relative affinity (in words)” value is recorded as “substantially lower”. On Fab317 (setting [2]), the Kd is 12100 ± 2490 nM and the No. of sites was 1.72 ± 0.13.

Turning to “Ac-DPNANPNVDPNA-NH2 [DPNANPNVDPNA, Ac-DPNANPNVDPNA-NH2]”, at Fab311, the “affinity/Kd compared with the (NPNA)3 peptide” value was “approximately fivefold lower affinity”, the Kd amounted to 1370 ± 390 nM and the No. of sites came to 1.20 ± 0.03. For the same compound, at Fab317 (setting [1]), the dissociation constant (Kd) came out at 448 ± 68 nM and the No. of sites is recorded as 1.64 ± 0.05.

A word on the Kd: it is the free concentration of one partner at which half of the binding sites on the other are occupied at equilibrium, for simple one-to-one binding. Read a low Kd as higher affinity.
